Several values for one entry are separate records, joined by “and”; a condition that tells them apart may be missing. Equal entries are not always repeated. Where two headings read alike, the source gives them in different places. Each block holds one compound with its values, some of them ahead of it.
Key:
[1] = Pharmacokinetic studies of certain compounds in female Balb/c mice (Example 5); type: in vivo; settings: for concentration at 0.5 hr / concentration at 1 hr / concentration at 2 hr / concentration at 4 hr: BALB/c
Method: Pharmacokinetic studies were performed using Balb/c mice, 15-20 g, 6-9 weeks, female, N=9, purchased from Jihui Laboratory Animal Co. LTD. For compound I-29, Balb/c mice, 19-21 g, 9-11 weeks, female, N=9, were used. The mice were fasted overnight and fed at 4 h post dosing.
Animals were dosed via oral gavage (PO) or tail vein injection (IV) with compound. Sampling occurred at 0.083, 0.25, 0.5, 1, 2, 4, 8, and 24 h post dose (8 time points). The animals were restrained manually at the designated time points. Approx. […] of blood was taken from the animals via facial vein for semi-serial bleeding into tubes with K2EDTA. Blood samples were put on ice and centrifuged at 4° C. (2000 g, 5 min) to obtain plasma within 15 min after sample collection. Plasma samples were stored in dry ice temporarily and at approximately −70° C. until analysis.
For oral gavage, the compound was dosed as a suspension in 1% sodium carboxymethyl cellulose (CMC) and 0.2% Tween 80 in water. For 23.8 mg/kg and 30 mg/kg doses, 3 mg/mL was used; for 50 mg/kg doses, 5 mg/mL was used; and for 100 mg/kg doses, 10 mg/mL was used.
For IV administration, the compound was dosed as a solution in 5% DMSO, 5% Solutol HS15 and 90% saline. For 1 mg/kg and 1.48 mg/kg doses, 0.2 mg/mL was used.
Plasma samples were analyzed using LC-MS using a calibration curve of known concentrations.
The results of these studies are summarized in Tables 11-21 below and in FIGS. 2-8. […] BQL=below quantifiable limit for compound in female Balb/c mouse plasma samples. NA=not available. PK parameters were estimated by non-compartmental model using WinNonlin 8.2. If the adjusted rsq (linear regression coefficient of the concentration value on the terminal phase) was less than 0.9, T1/2 might not have been accurately estimated. F value was determined by the following equation: • If AUClast/AUCINF>80%:
F=(AUCINF-EX×DOSEIV)/(AUCINF-IV×DOSEEX)[…] • If AUClast/AUCINF<80% or AUCINF not available:
F=(AUClast-EX×DOSEIV)/(AUClast-IV×DOSEEX)*1000

Human eIF4E (aa 28-217) = molecular target: T1, Human eIF4E (aa 28-217) (Homo sapiens, UniProt P06730); assay: 4G-eIF4E protein-based assay (TR-FRET, biotin labeled 4G2 peptide); type: binding
T1 construct: Human eIF4E (aa 28-217) with a C-terminal His-tag; made in house
Method: Human eIF4E ([…]) with a C-terminal His-tag was expressed in E. coli in inclusion bodies. The protein was solubilized with 8 M urea and purified under denaturing conditions using nickel-charged HisTrap HP columns (GE Healthcare). The purified protein was then refolded by diluting in 20 mM Hepes pH 7.0, 0.5 M NaCl, 1 mM DTT, […], 0.5 M arginine plus 6 M urea, and then dialyzing overnight into the same buffer without the urea. The protein was further dialyzed into 20 mM Hepes, pH 6.5, 50 mM NaCl, 1 mM EDTA, 1 mM DTT, and concentrated using Hitrap SP sepharose FF columns (GE Healthcare). The concentrated protein was dialyzed into 20 mM Hepes, pH 7.0, 0.5M NaCl, 5 mM DTT and […], and stored at -80° C. until use. Test compounds (3.43 mM stock in DMSO) were diluted 2-fold in series in DMSO (10 concentration points). Compound solutions (1.2 μL/well) were added into black 384-well polypropylene microplates (Matrix, Thermal Scientific). […] The samples were incubated at room temperature (20-23° C.) for 4 hours. Biotin labeled 4G2 peptide ([…])-NH2, 1.75 μM stock in DMSO) was diluted to 0.13 μM in Assay Buffer (without DTT) and 5 μL/well was added. The samples were incubated at room temperature for 20 min. Five microliters per well of 15 nM Eu-streptavidin (Eu-SA, Perkin Elmer) and 96 nM Allophycocyanin (APC)-anti His antibody (Columbia Biosciences) in Assay Buffer (without DTT) were then added and the samples were incubated at room temperature for 20 min. Assay signals were monitored by reading excitation at 340 nm and emission fluorescence at 615 nm and 665 nm on an Envision reader (Perkin Elmer). Normalized TR-FRET (time-resolved fluorescence resonance energy transfer) assay signal (Rn) was calculated by the formula: […] C=(Ac-Ba)/(Dc-Bd) • Where Ac is the fluorescence intensity of 1.5 nM Eu-SA in the assay buffer at 665 nm. IC50 values were calculated using xLFit program (IDBS).

[2] = mouse, plasma, I-2 PO 100 mg/kg

T1 sequence (P06730 28-217): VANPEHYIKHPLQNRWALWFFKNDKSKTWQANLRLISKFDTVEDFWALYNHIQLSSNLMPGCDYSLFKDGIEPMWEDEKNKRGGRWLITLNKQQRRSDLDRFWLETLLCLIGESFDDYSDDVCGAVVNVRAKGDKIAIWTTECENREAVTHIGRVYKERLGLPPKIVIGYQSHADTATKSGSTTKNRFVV

Plasma concentration Individual ([1]; I-2 PO 30 mg/kg, 0.083 hr, 30 mg/kg): 106 ng/mL and 211 ng/mL and 94.1 ng/mL
Plasma concentration Individual ([1]; I-2 PO 30 mg/kg, 0.25 hr, 30 mg/kg): 663 ng/mL and 622 ng/mL
Plasma concentration Individual ([1]; I-2 PO 30 mg/kg, 0.5 hr, 30 mg/kg): 1380 ng/mL and 1170 ng/mL
Plasma concentration Individual ([1]; I-2 PO 30 mg/kg, 1 hr, 30 mg/kg): 2110 ng/mL and 1590 ng/mL
Plasma concentration Individual ([1]; I-2 PO 30 mg/kg, 2 hr, 30 mg/kg): 2640 ng/mL and 2190 ng/mL
Plasma concentration Individual ([1]; I-2 PO 30 mg/kg, 4 hr, 30 mg/kg): 1600 ng/mL
Plasma concentration Individual ([1]; I-2 PO 30 mg/kg, 8 hr, 30 mg/kg): 233 ng/mL and 261 ng/mL
Plasma concentration Individual ([1]; I-2 PO 30 mg/kg, 24 hr, 30 mg/kg): 7.09 ng/mL and 5.63 ng/mL
Plasma concentration Individual ([1]; I-2 PO 100 mg/kg, 0.083 hr, 100 mg/kg): 406 ng/mL and 159 ng/mL and 182 ng/mL
Plasma concentration Individual ([1]; I-2 PO 100 mg/kg, 0.25 hr, 100 mg/kg): 1310 ng/mL and 2360 ng/mL and 885 ng/mL
Plasma concentration Individual ([1]; I-2 PO 100 mg/kg, 0.5 hr, 100 mg/kg): 3290 ng/mL and 2960 ng/mL
Plasma concentration Individual ([1]; I-2 PO 100 mg/kg, 1 hr, 100 mg/kg): 3010 ng/mL and 3120 ng/mL
Plasma concentration Individual ([1]; I-2 PO 100 mg/kg, 2 hr, 100 mg/kg): 4510 ng/mL and 3430 ng/mL
Plasma concentration Individual ([1]; I-2 PO 100 mg/kg, 4 hr, 100 mg/kg): 3380 ng/mL and 1660 ng/mL and 2310 ng/mL
Plasma concentration Individual ([1]; I-2 PO 100 mg/kg, 8 hr, 100 mg/kg): 914 ng/mL and 861 ng/mL
Plasma concentration Individual ([1]; I-2 PO 100 mg/kg, 24 hr, 100 mg/kg): 19.7 ng/mL and 18.8 ng/mL and 37.7 ng/mL
concentration at 0.5 hr ([1]; female, mouse, plasma, po, 30 mg/kg, I-2 PO 30 mg/kg, 0.5 hr, read-out: Plasma concentration Individual): 1160 ng/mL
concentration at 0.5 hr ([1]; female, mouse, plasma, po, 30 mg/kg, I-2 PO 30 mg/kg, 0.5 hr, read-out: Plasma concentration Mean): 1240 ng/mL
concentration at 1 hr ([1]; female, mouse, plasma, po, 30 mg/kg, I-2 PO 30 mg/kg, 1 hr, read-out: Plasma concentration Individual): 1700 ng/mL
concentration at 1 hr ([1]; female, mouse, plasma, po, 30 mg/kg, I-2 PO 30 mg/kg, 1 hr, read-out: Plasma concentration Mean): 1800 ng/mL
concentration at 2 hr ([1]; female, mouse, plasma, po, 30 mg/kg, I-2 PO 30 mg/kg, 2 hr, read-out: Plasma concentration Individual): 2150 ng/mL
concentration at 2 hr ([1]; female, mouse, plasma, po, 30 mg/kg, I-2 PO 30 mg/kg, 2 hr, read-out: Plasma concentration Mean): 2330 ng/mL
concentration at 4 hr ([1]; female, mouse, plasma, po, 30 mg/kg, I-2 PO 30 mg/kg, 4 hr, read-out: Plasma concentration Individual): 1340 ng/mL
concentration at 4 hr ([1]; female, mouse, plasma, po, 30 mg/kg, I-2 PO 30 mg/kg, 4 hr, read-out: Plasma concentration Mean): 1510 ng/mL
concentration at 0.083 h ([1]; female, Balb/c, mouse, plasma, po, 30 mg/kg, I-2 PO 30 mg/kg, 0.083 hr, read-out: Plasma concentration Mean): 137 ng/mL
concentration at 0.25 h ([1]; female, Balb/c, mouse, plasma, po, 30 mg/kg, I-2 PO 30 mg/kg, 0.25 hr, read-out: Plasma concentration Individual): 472 ng/mL
concentration at 0.25 h ([1]; female, Balb/c, mouse, plasma, po, 30 mg/kg, I-2 PO 30 mg/kg, 0.25 hr, read-out: Plasma concentration Mean): 586 ng/mL
concentration at 8 hr ([1]; female, Balb/c, mouse, plasma, po, 30 mg/kg, I-2 PO 30 mg/kg, 8 hr, read-out: Plasma concentration Individual): 244 ng/mL
concentration at 8 h ([1]; female, Balb/c, mouse, plasma, po, 30 mg/kg, I-2 PO 30 mg/kg, 8 hr, read-out: Plasma concentration Mean): 246 ng/mL
concentration at 24 h ([1]; female, Balb/c, mouse, plasma, po, 30 mg/kg, I-2 PO 30 mg/kg, 24 hr, read-out: Plasma concentration Individual): 4.28 ng/mL
concentration at 24 h ([1]; female, Balb/c, mouse, plasma, po, 30 mg/kg, I-2 PO 30 mg/kg, 24 hr, read-out: Plasma concentration Mean): 5.67 ng/mL
concentration at 0.083 h ([1]; female, Balb/c, mouse, plasma, po, 100 mg/kg, I-2 PO 100 mg/kg, 0.083 hr, read-out: Plasma concentration Mean): 249 ng/mL
concentration at 0.25 h ([1]; female, Balb/c, mouse, plasma, po, 100 mg/kg, I-2 PO 100 mg/kg, 0.25 hr, read-out: Plasma concentration Mean): 1520 ng/mL
concentration at 0.5 h ([1]; female, Balb/c, mouse, plasma, po, 100 mg/kg, I-2 PO 100 mg/kg, 0.5 hr, read-out: Plasma concentration Individual): 2800 ng/mL
concentration at 0.5 h ([1]; female, Balb/c, mouse, plasma, po, 100 mg/kg, I-2 PO 100 mg/kg, 0.5 hr, read-out: Plasma concentration Mean): 3020 ng/mL
concentration at 1 h ([1]; female, Balb/c, mouse, plasma, po, 100 mg/kg, I-2 PO 100 mg/kg, 1 hr, read-out: Plasma concentration Individual): 4550 ng/mL
concentration at 1 h ([1]; female, Balb/c, mouse, plasma, po, 100 mg/kg, I-2 PO 100 mg/kg, 1 hr, read-out: Plasma concentration Mean): 3560 ng/mL
concentration at 2 h ([1]; female, Balb/c, mouse, plasma, po, 100 mg/kg, I-2 PO 100 mg/kg, 2 hr, read-out: Plasma concentration Individual): 3810 ng/mL
concentration at 2 h ([1]; female, Balb/c, mouse, plasma, po, 100 mg/kg, I-2 PO 100 mg/kg, 2 hr, read-out: Plasma concentration Mean): 3920 ng/mL
concentration at 4 h ([1]; female, Balb/c, mouse, plasma, po, 100 mg/kg, I-2 PO 100 mg/kg, 4 hr, read-out: Plasma concentration Mean): 2450 ng/mL
concentration at 8 h ([1]; female, Balb/c, mouse, plasma, po, 100 mg/kg, I-2 PO 100 mg/kg, 8 hr, read-out: Plasma concentration Individual): 1080 ng/mL
concentration at 8 h ([1]; female, Balb/c, mouse, plasma, po, 100 mg/kg, I-2 PO 100 mg/kg, 8 hr, read-out: Plasma concentration Mean): 952 ng/mL
concentration at 24 h ([1]; female, Balb/c, mouse, plasma, po, 100 mg/kg, I-2 PO 100 mg/kg, 24 hr, read-out: Plasma concentration Mean): 25.4 ng/mL
AUC(0-inf) ([1]; mouse, plasma, I-2 PO 30 mg/kg): 12500 ng·h/mL
AUC(0-t) ([1]; mouse, plasma, I-2 PO 30 mg/kg): 12500 ng·h/mL
Cmax ([1]; mouse, plasma, I-2 PO 30 mg/kg): 2330 ng/mL
MRT inf ([1]; mouse, plasma, I-2 PO 30 mg/kg): 3.85 h
MRT last ([1]; mouse, plasma, I-2 PO 30 mg/kg): 3.81 h
Tmax ([1]; mouse, plasma, I-2 PO 30 mg/kg): 2 h
half-life ([1]; mouse, plasma, I-2 PO 30 mg/kg): 2.6 h
AUC(0-inf) [1, 2]: 27200 ng·h/mL
AUC(0-t) [1, 2]: 27100 ng·h/mL
Cmax [1, 2]: 3920 ng/mL
MRT inf [1, 2]: 4.73 h
MRT last [1, 2]: 4.63 h
Tmax [1, 2]: 2 h
half-life [1, 2]: 3.04 h
Structure (SMILES): CC(C)Cc1sc(Nc2ncc(-c3cccs3)cc2C(=O)O)nc1C1=CCCCC1 [Compound I-2]

IC50 (Human eIF4E (aa 28-217)): 500 to 1000 nM
Structure (SMILES): CC(C)Cc1sc(Nc2ncc(-c3cccs3)cc2C(=O)O)nc1C(C)(C)C [Compound I-11]

From patent US20240208961A1, “EIF4E INHIBITORS AND USES THEREOF” (PIC Therapeutics, Inc., priority 2022, published 2024)
